Assay results as given in patent US12264146B2, “Rho kinase inhibitor, method for preparing same and uses thereof” (BEIJING INCREASE INNOVATIVE DRUG CO., LTD., priority 2018, dated 2025).

Legend:
endothelin (ET-1) = experiment: Expression of endothelin (ET-1) in EA.Hy926 endothelial cells, detection kit; format: cell-based, human; conditions: EA.Hy926 cell supernatant, 48 h
Experimental: (§1) Commercially available cytokine kits were used to detect the effects of the compounds of the present application on vascular endothelium-derived contracting factor endothelin, vascular endothelium-derived relaxing factor endothelial nitric oxide synthase, nitric oxide, and prostacyclin factor. The detection was performed according to the kit instructions. When testing the effect of the compound of the present application on cytokines, a normal control group, a fasudil hydrochloride group, and high-, medium- and low-dose groups of the compounds of the present application were set up for testing. The fasudil hydrochloride used in this test example was purchased from Beijing Sihuan Pharmaceutical Co., Ltd., with the SFDA approval number of H20173349. The EA.Hy926 cells used in this test example were purchased from Suzhou Beina Chuanglian Biotechnology Co., Ltd.
EA.Hy926 cells were taken and inoculated in a 96-well plate at 5×10^4 cells/mL, 100 μL per well, and cultured adherently for 24 hours, then the test compound prepared in DMEM medium was added, and an equal volume of DMEM medium was added in the normal control group, then the cells were cultured at 37° C. for 48 hours, and then the cell supernatant was taken and placed in an EP tube, and centrifuged at 3000 r/min, 4° C. for 15 min. The resulting cell supernatant was transferred to a new EP tube, diluted twice with culture medium, and detected according to the instruction of the human endothelin detection kit (purchased from Wuhan Boster Biological Engineering Co., Ltd., batch number 59113731009), and the detection results were shown in Table 2.

prostacyclin (PGI2) = experiment: Expression of prostacyclin (PGI2) in EA.Hy926 endothelial cells, ELISA kit; format: cell-based; conditions: EA.Hy926 cell supernatant, 24 h
Experimental: as §1
EA.Hy926 cells were taken and inoculated in a 96-well plate at 5×10^4 cells/mL, 100 μL per well, and cultured adherently for 24 hours, then the test compound prepared in DMEM medium was added, and an equal volume of DMEM medium was added in the normal control group, then the cells were cultured at 37° C. for 24 hours, and then the cell supernatant was taken and placed in an EP tube, and centrifuged for 15 min at 3000 r/min and 15° C. The resulting supernatant was transferred to a new EP tube, and then the detection was performed according to the instruction of ELISA kit (purchased from Wuhan Elabscience Biotechnology Co., Ltd., Cat. No. E-EL-0022c), and the detection results were shown in Table 3.

SMILES	expression of endothelin in endothelial cells: Detection result of test compound at low dose (0.4 μM) (endothelin (ET-1))	expression of endothelin in endothelial cells: Detection result of test compound at medium dose (2 μM) (endothelin (ET-1))	expression of endothelin in endothelial cells: Detection result of test compound at high dose (10 μM) (endothelin (ET-1))	expression of prostacyclin in endothelial cells: Detection result of test compound at low dose (0.4 μM) (prostacyclin (PGI2))	expression of prostacyclin in endothelial cells: Detection result of test compound at medium dose (2 μM) (prostacyclin (PGI2))	expression of prostacyclin in endothelial cells: Detection result of test compound at high dose (10 μM) (prostacyclin (PGI2))
C[C@@H]1CNCCCN1S(=O)(=O)c1cccc2c(O)ncc(C3CC3)c12 [Compound R-YK1600-1, (R)-4-cyclopropyl-5-((2-methyl-1,4-diazacycloheptan-1-yl)sulfonyl)isoquinolin-1-ol]	228.20 ± 2.28 pg/mL	229.34 ± 7.96 pg/mL	227.68 ± 3.34 pg/mL	243.20 ± 2.28 pg/mL	242.34 ± 7.96 pg/mL	247.68 ± 3.34 pg/mL
COc1ncc(C2CC2)c2c(S(=O)(=O)N3CCCNC[C@H]3C)cccc12 [Compound R-YK1600-2, (R)-4-cyclopropyl-1-methoxy-5-((2-methyl-1,4-diazacycloheptan-1-yl)sulfonyl)isoquinoline]	223.55 ± 0.12 pg/mL	225.98 ± 11.41 pg/mL	229.23 ± 0.75 pg/mL	241.55 ± 0.12 pg/mL	245.98 ± 11.41 pg/mL	249.23 ± 0.75 pg/mL
C[C@@H]1CNCCCN1S(=O)(=O)c1cccc2c(O)nccc12 [Compound R-YK1601, (R)-5-((2-methyl-1,4-diazacycloheptan-1-yl)sulfonyl)isoquinolin-1-ol]	253.46 ± 19.86 pg/mL	266.61 ± 20.77 pg/mL	243.07 ± 17.37 pg/mL	253.00 ± 5.55 pg/mL	253.52 ± 55.60 pg/mL	227.01 ± 16.23 pg/mL
COc1nccc2c(S(=O)(=O)N3CCCNC[C@H]3C)cccc12 [Compound R-YK1602, (R)-1-methoxy-5-((2-methyl-1,4-diazacycloheptan-1-yl)sulfonyl)isoquinoline]	263.55 ± 0.12 pg/mL	285.24 ± 13.22 pg/mL	238.19 ± 19.65 pg/mL	248.71 ± 19.98 pg/mL	263.34 ± 15.04 pg/mL	241.51 ± 16.58 pg/mL
C[C@@H]1CNCCCN1S(=O)(=O)c1cccc2cnccc12 [Compound R-YK1603, (R)-5-((2-methyl-1,4-diazacycloheptan-1-yl)sulfonyl)isoquinoline]	242.75 ± 52.53 pg/mL	252.72 ± 22.83 pg/mL	242.03 ± 1.24 pg/mL	262.30 ± 0.77 pg/mL	272.58 ± 4.40 pg/mL	243.73 ± 15.66 pg/mL
C[C@@H]1CNCCCN1S(=O)(=O)c1cccc2c(O)ncc(F)c12 [Compound R-YK1604, (R)-4-fluoro-5-((2-methyl-1,4-diazacycloheptan-1-yl)sulfonyl)isoquinolin-1-ol]	232.75 ± 42.51 pg/mL	242.72 ± 20.81 pg/mL	230.03 ± 1.24 pg/mL	280.40 ± 9.89 pg/mL	279.35 ± 28.69 pg/mL	251.44 ± 42.48 pg/mL
COc1ncc(F)c2c(S(=O)(=O)N3CCCNC[C@H]3C)cccc12 [Compound R-YK1605, (R)-4-fluoro-1-methoxy-5-((2-methyl-1,4-diazacycloheptan-1-yl)sulfonyl)isoquinoline]	231.61 ± 9.70 pg/mL	228.98 ± 11.41 pg/mL	259.53 ± 0.75 pg/mL	280.07 ± 7.00 pg/mL	274.72 ± 32.60 pg/mL	246.51 ± 1.44 pg/mL
C[C@@H]1CNCCCN1S(=O)(=O)c1cccc2c(O)ncc(Cl)c12 [Compound R-YK1606, (R)-4-chloro-5-((2-methyl-1,4-diazacycloheptan-1-yl)sulfonyl)isoquinolin-1-ol]	231.75 ± 32.51 pg/mL	242.62 ± 19.81 pg/mL	231.03 ± 1.24 pg/mL	292.24 ± 2.59 pg/mL	278.32 ± 46.42 pg/mL	258.58 ± 7.57 pg/mL
CCc1cnc(O)c2cccc(S(=O)(=O)N3CCCNC[C@H]3C)c12 [Compound R-YK1607, (R)-4-ethyl-5-((2-methyl-1,4-diazacycloheptan-1-yl)sulfonyl)isoquinolin-1-ol]	248.20 ± 2.28 pg/mL	259.34 ± 7.96 pg/mL	237.68 ± 3.34 pg/mL	249.20 ± 2.28 pg/mL	257.34 ± 7.96 pg/mL	241.68 ± 3.34 pg/mL
O=S(=O)(c1cccc2cnccc12)N1CCCNC[C@H]1C1CC1 [Compound R-YK1608, (R)-5-((2-cyclopropyl-1,4-diazacycloheptan-1-yl)sulfonyl)isoquinoline]	233.55 ± 0.12 pg/mL	229.98 ± 11.41 pg/mL	239.23 ± 0.75 pg/mL	257.55 ± 4.12 pg/mL	251.98 ± 10.41 pg/mL	242.23 ± 1.75 pg/mL
CC(C)[C@@H]1CNCCCN1S(=O)(=O)c1cccc2c(O)nccc12 [Compound R-YK1609, (R)-5-((2-isopropyl-1,4-diazacycloheptan-1-yl)sulfonyl)isoquinolin-1-ol]	222.75 ± 52.53 pg/mL	232.72 ± 22.83 pg/mL	242.03 ± 1.24 pg/mL	259.20 ± 2.21 pg/mL	260.34 ± 7.94 pg/mL	238.68 ± 3.34 pg/mL
